Reference: US9139587B2, “N1-pyrazolospiroketone acetyl-CoA carboxylase inhibitors” (Pfizer Inc., priority 2009, dated 2015)

What was measured:
[1] = target: T1, recombinant human ACC1 (rhACC1) (Homo sapiens, UniProt Q13085, DEL44-44); assay: recombinant hACC1 Transcreener assay (direct inhibition of ACC1 activity); type: biochemical; settings: Transcreener ADP detection FP assay, 50 μM ATP, 30 μM acetyl-CoA, 120 min at 25° C.
T1 construct: recombinant baculovirus containing full length human ACC1 cDNA; made in house; host or cells: SF9 insect cells (baculovirus)
Description: For example direct inhibition of ACC activity, for the compound of Formula (1) was determined using preparations of recombinant human ACC1 (rhACC1) and recombinant human ACC2 (rhACC2). Representative sequences of the recombinant human ACC1 and ACC2 that can be used in the assay are provided in FIG. 1 (SEQ ID NO. 1) and FIG. 2 (SEQ. ID NO. 2), respectively. Preparation of rhACC1. Two liters of SF9 cells, infected with recombinant baculovirus containing full length human ACC1 cDNA, were suspended in ice-cold lysis buffer (25 mM Tris, pH 7.5; 150 mM NaCl; 10% glycerol; 5 mM imidazole (EMD Bioscience; Gibbstown, N.J.); 2 mM TCEP (BioVectra; Charlottetown, Canada); Benzonase nuclease (10000 U/100 g cell paste; Novagen; Madison, Wis.); EDTA-free protease inhibitor cocktail (1 tab/50 mL; Roche Diagnostics; Mannheim, Germany). Cells were lysed by 3 cycles of freeze-thaw and centrifuged at 40,000×g for 40 minutes (4° C.). Supernatant was directly loaded onto a HisTrap FF crude column (GE Healthcare; Piscataway, N.J.) and eluted with an imidazole gradient up to 0.5 M over 20 column volumes (CV). ACC1-containing fractions were pooled and diluted 1:5 with 25 mM Tris, pH 7.5, 2 mM TCEP, 10% glycerol and direct loaded onto a CaptoQ (GE Healthcare) column and eluted with an NaCl gradient up to 1 M over 20 CV's. Phosphate groups were removed from purified ACC1 by incubation with lambda phosphatase (100 U/10 μM target protein; New England Biolabs; Beverly, Mass.) for 14 hours at 4° C.; okadaic acid was added (1 μM final concentration; Roche Diagnostics) to inhibit the phosphatase. Purified ACC1 was exchanged into 25 mM Tris, pH 7.5, 2 mM TCEP, 10% glycerol, 0.5 M NaCl by 6 hour dialysis at 4° C. Aliquots were prepared and frozen at −80° C. […] The final conditions for the assay were 50 mM HEPES, pH 7.2, 10 mM MgCl2, 7.5 mM tripotassium citrate, 2 mM DTT, 0.1 mg/mL BSA, 30 μM acetyl-CoA, 50 μM ATP, and 10 mM KHCO3 Typically, a 10 μl reaction was run for 120 min at 25° C., and 10 μl of Transcreener stop and detect buffer was added and the combination incubated at room temp for an additional 1 hour. The data was acquired on a Envision Fluorescence reader (Perkinelmer) using a 620 excitation Cy5 FP general dual mirror, 620 excitation Cy5 FP filter, 688 emission (S) and a 688 (P) emission filter.

[2] = target: T2, recombinant human ACC2 (rhACC2) (Homo sapiens, UniProt O00763, V2141I); assay: recombinant hACC2 Transcreener assay (direct inhibition of ACC2 activity); type: biochemical; settings: Transcreener ADP detection FP assay, 50 μM ATP, 30 μM acetyl-CoA, 50 min at 25° C.
T2 construct: a full length Cytomax clone of ACC2 was purchased from Cambridge Bioscience Limited; made in house; host or cells: CHO cells (tetracycline-induced, pcDNA5 FRT TO-TOPO)
T2 sequence (O00763 whole entry V2141I): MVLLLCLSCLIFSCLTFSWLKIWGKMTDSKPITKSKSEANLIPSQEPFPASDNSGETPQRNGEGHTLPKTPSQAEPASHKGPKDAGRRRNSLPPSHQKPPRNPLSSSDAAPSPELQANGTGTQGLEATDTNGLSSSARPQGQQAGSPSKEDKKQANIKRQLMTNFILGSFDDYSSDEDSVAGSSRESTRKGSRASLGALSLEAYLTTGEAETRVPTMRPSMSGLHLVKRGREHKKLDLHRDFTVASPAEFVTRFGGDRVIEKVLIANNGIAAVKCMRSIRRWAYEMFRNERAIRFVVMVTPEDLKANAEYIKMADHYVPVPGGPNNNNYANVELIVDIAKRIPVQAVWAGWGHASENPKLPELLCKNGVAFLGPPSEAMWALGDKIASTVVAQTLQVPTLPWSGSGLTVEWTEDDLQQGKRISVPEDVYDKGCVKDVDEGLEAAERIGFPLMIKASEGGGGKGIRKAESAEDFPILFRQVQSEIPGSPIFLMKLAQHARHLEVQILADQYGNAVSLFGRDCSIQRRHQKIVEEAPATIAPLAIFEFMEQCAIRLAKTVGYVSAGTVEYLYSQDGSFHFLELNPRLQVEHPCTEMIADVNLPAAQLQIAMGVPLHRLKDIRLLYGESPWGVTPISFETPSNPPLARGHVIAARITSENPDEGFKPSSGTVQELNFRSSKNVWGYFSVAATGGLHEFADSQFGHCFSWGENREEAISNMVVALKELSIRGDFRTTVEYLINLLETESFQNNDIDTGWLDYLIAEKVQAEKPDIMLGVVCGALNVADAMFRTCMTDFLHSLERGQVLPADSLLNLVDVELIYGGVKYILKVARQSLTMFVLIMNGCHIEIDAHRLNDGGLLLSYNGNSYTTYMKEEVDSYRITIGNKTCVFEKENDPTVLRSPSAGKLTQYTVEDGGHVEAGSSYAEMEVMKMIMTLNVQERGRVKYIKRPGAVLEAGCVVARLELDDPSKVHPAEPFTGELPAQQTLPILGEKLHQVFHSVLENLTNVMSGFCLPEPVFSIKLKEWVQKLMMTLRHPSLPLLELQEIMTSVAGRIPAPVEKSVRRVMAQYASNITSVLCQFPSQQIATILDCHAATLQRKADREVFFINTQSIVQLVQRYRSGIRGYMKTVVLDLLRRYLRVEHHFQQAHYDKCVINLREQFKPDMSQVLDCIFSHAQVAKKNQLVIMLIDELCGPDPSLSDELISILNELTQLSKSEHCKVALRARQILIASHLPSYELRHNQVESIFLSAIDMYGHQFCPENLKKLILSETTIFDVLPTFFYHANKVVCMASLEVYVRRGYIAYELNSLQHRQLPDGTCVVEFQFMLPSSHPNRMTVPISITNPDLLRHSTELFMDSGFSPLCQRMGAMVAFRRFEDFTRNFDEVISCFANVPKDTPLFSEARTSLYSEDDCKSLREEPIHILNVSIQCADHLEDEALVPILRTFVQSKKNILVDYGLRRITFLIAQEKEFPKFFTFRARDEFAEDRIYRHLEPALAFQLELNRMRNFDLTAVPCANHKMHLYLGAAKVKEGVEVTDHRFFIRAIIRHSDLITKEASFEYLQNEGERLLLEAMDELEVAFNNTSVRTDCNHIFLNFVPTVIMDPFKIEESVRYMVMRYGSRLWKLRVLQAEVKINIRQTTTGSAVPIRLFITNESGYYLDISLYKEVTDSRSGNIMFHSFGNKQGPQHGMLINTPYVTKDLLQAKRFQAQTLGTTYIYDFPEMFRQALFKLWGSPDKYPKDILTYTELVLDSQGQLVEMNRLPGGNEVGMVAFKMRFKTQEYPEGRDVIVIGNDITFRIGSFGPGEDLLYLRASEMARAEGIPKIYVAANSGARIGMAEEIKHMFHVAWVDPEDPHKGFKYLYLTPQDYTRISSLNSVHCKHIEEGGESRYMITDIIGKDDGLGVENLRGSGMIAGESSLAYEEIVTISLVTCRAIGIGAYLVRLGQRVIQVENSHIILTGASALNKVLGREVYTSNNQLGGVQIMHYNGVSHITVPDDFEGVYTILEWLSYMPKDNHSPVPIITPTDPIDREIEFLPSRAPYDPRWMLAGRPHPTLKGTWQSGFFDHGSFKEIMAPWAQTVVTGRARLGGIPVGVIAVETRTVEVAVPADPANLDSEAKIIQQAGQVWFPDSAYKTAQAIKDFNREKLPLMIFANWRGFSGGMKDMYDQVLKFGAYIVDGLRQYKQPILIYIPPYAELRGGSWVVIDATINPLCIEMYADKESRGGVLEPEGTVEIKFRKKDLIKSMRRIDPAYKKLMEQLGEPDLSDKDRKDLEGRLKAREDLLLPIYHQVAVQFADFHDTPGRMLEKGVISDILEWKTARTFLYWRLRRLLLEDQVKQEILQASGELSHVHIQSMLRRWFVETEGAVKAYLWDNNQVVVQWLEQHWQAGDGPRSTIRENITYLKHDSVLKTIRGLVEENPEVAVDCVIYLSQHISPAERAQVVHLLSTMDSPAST
Description: For example direct inhibition of ACC activity, for the compound of Formula (1) was determined using preparations of recombinant human ACC1 (rhACC1) and recombinant human ACC2 (rhACC2). Representative sequences of the recombinant human ACC1 and ACC2 that can be used in the assay are provided in FIG. 1 (SEQ ID NO. 1) and FIG. 2 (SEQ. ID NO. 2), respectively.
[3] Preparation of rhACC2. Human ACC2 inhibition was measured using purified recombinant human ACC2 (hrACC2). Briefly, a full length Cytomax clone of ACC2 was purchased from Cambridge Bioscience Limited and was sequenced and subcloned into PcDNA5 FRT TO-TOPO (Invitrogen, Carlsbad, Calif.). The ACC2 was expressed in CHO cells by tetracycline induction and harvested in 5 liters of DMEM/F12 with glutamine, biotin, hygromycin and blasticidin with 1 μg/mL tetracycline (Invitrogen, Carlsbad, Calif.). The conditioned medium containing ACC2 was then applied to a Softlink Soft Release Avidin column (Promega, Madison, Wis.) and eluted with 5 mM biotin. 4 mgs of ACC2 were eluted at a concentration of 0.05 mg/mL (determined by A280) with an estimated purity of 95% ([…]). The purified ACC2 was dialyzed in 50 mM Tris, 200 mM NaCl, 4 mM DTT, 2 mM EDTA, and 5% glycerol. The pooled protein was frozen and stored at −80° C., with no loss of activity upon thawing. For measurement of ACC2 activity and assessment of ACC2 inhibition, test compounds were dissolved in DMSO and added to the rhACC2 enzyme as a 5× stock with a final DMSO concentration of 1%.
[4] Measurement of human ACC2 inhibition. hACC2 was assayed in a Costar #3676 (Costar, Cambridge, Mass.) 384-well plate using the Transcreener ADP detection FP assay kit (Bellbrook Labs, Madison, Wisconsin) using the manufacturer's recommended conditions for a 50 uM ATP reaction. The final conditions for the assay were 50 mM HEPES, pH 7.2, 5 mM MgCl2, 5 mM tripotassium citrate, 2 mM DTT, 0.1 mg/mL BSA, 30 μM acetyl-CoA, 50 μM ATP, and 8 mM KHCO3 Typically, a 10 μl reaction was run for 50 min at 25° C., and 10 μl of Transcreener stop and detect buffer was added and the combination incubated at room temp for an additional 1 hour. The data was acquired on an Envision Fluorescence reader (Perkinelmer) using a 620 excitation Cy5 FP general dual mirror, 620 excitation Cy5 FP filter, 688 emission (S) and a 688 (P) emission filter.

Compound	IC50 [1] [nM]	IC50 [2] [nM]
CC(C)(C)n1ncc2c1C(=O)CC1(CCN(C(=O)c3ccc4c(c3)CC(=O)N4)CC1)C2 [Example 2A-30]	170	51
CC(C)(C)n1ncc2c1C(=O)CC1(CCN(C(=O)c3ccc4cc[nH]c(=O)c4c3)CC1)C2 [Example 2A-31]	43.5	28.8
CC(C)(C)n1ncc2c1C(=O)CC1(CCN(C(=O)c3ccc4[nH]cnc4c3)CC1)C2 [Example 2A-32]	37	28.6
CC(C)n1ncc2c1C(=O)CC1(CCN(C(=O)c3ccc4[nH]c(=O)[nH]c4c3)CC1)C2 [Example 2A-33]	53.7	14.5
CC(C)(C)n1ncc2c1C(=O)CC1(CCN(C(=O)c3ccc4c(c3)NC(=O)CC4)CC1)C2 [Example 2A-34]	72.4	32.1
CC(C)n1ncc2c1C(=O)CC1(CCN(C(=O)c3cc(F)c4nc[nH]c4c3)CC1)C2 [Example 2A-36]	123	29.6
CC(C)n1ncc2c1C(=O)CC1(CCN(C(=O)c3cc(F)c4[nH]ncc4c3)CC1)C2 [Example 2A-37]	87.4	34.5
CC(C)n1ncc2c1C(=O)CC1(CCN(C(=O)c3cc4cnccc4nc3N)CC1)C2 [Example 2A-38]	297	99.7
CC(C)(C)n1ncc2c1C(=O)CC1(CCN(C(=O)c3nc4ccccc4nc3N)CC1)C2 [Example 2A-39]	527	122
CC(C)n1ncc2c1C(=O)CC1(CCN(C(=O)c3cnc4ccnn4c3N)CC1)C2 [Example 2A-40]	262	116
CC(C)(C)n1ncc2c1C(=O)CC1(CCN(C(=O)c3cnc4[nH]ncc4c3)CC1)C2 [Example 2A-41]	176	90
Cc1nc2ccc(C(=O)N3CCC4(CC3)CC(=O)c3c(cnn3C3COC3)C4)cc2[nH]1 [Example 2A-42]	1300	766
CC(C)(C)n1ncc2c1C(=O)CC1(CCN(C(=O)c3cnc4ccnn4c3N)CC1)C2 [Example 2A-43]	304	149
CC(C)(C)n1ncc2c1C(=O)CC1(CCN(C(=O)c3cc(F)c4[nH]ncc4c3)CC1)C2 [Example 2A-44]	106	30.2
Cn1c(=O)[nH]c2cc(C(=O)N3CCC4(CC3)CC(=O)c3c(cnn3C(C)(C)C)C4)ccc21 [Example 2A-45]	73.7	32.9
CC(C)n1ncc2c1C(=O)CC1(CCN(C(=O)c3ccc4c(c3)[nH]c(=O)n4C)CC1)C2 [Example 2A-46]	167	29.5
CC(C)n1ncc2c1C(=O)CC1(CCN(C(=O)c3cc(Cl)c4nc[nH]c4c3)CC1)C2 [Example 2A-47]	48.2	15.9
CC(C)(C)n1ncc2c1C(=O)CC1(CCN(C(=O)c3cc(Cl)c4nc[nH]c4c3)CC1)C2 [Example 2A-48]	51.1	17.2
Cn1c(=O)[nH]c2ccc(C(=O)N3CCC4(CC3)CC(=O)c3c(cnn3C(C)(C)C)C4)cc21 [Example 2A-49]	92.1	71.6

Compound	IC50 [1] [nM]	IC50 [2] [nM]
CC(C)(C)n1ncc2c1C(=O)CC1(CCN(C(=O)c3cc(F)c4nc[nH]c4c3)CC1)C2 [Example 2A-51]	72.7	29.9
Cc1nc2c(Cl)cc(C(=O)N3CCC4(CC3)CC(=O)c3c(cnn3C(C)C)C4)cc2[nH]1 [Example 2A-52]	54.2	19.3
Cc1nc2c(Cl)cc(C(=O)N3CCC4(CC3)CC(=O)c3c(cnn3C(C)(C)C)C4)cc2[nH]1 [Example 2A-53]	39.6	17.2
Cc1nc2c(F)cc(C(=O)N3CCC4(CC3)CC(=O)c3c(cnn3C(C)C)C4)cc2[nH]1 [Example 2A-54]	214	51.5
Cc1nc2c(F)cc(C(=O)N3CCC4(CC3)CC(=O)c3c(cnn3C(C)(C)C)C4)cc2[nH]1 [Example 2A-55]	266	105
CC(C)(C)n1ncc2c1C(=O)CC1(CCN(C(=O)c3cc(Cl)c4[nH]c(=O)[nH]c4c3)CC1)C2 [Example 2A-56]	31.2	15.1
CC(C)n1ncc2c1C(=O)CC1(CCN(C(=O)c3cc(Cl)c4[nH]c(=O)[nH]c4c3)CC1)C2 [Example 2A-57]	66.5	20.8
CC(C)n1ncc2c1C(=O)CC1(CCN(C(=O)c3cnc4c(cnn4C)c3N)CC1)C2 [Example 2A-58]	280	74.1
Cn1ncc2c(N)c(C(=O)N3CCC4(CC3)CC(=O)c3c(cnn3C(C)(C)C)C4)cnc21 [Example 2A-59]	115	69.2
Cc1noc(-c2cc(C(=O)N3CCC4(CC3)CC(=O)c3c(cnn3C(C)C)C4)ccn2)n1 [Example 2A-60]	8240	3990
CC(C)n1ncc2c1C(=O)CC1(CCN(C(=O)c3cnc4ccccc4n3)CC1)C2 [Example 2A-61]	2320	2190
CC(=O)Nc1cccc(C(=O)N2CCC3(CC2)CC(=O)c2c(cnn2C(C)C)C3)n1 [Example 2A-62]	4210	1280
CC(C)n1ncc2c1C(=O)CC1(CCN(C(=O)c3ccc4cnccc4n3)CC1)C2 [Example 2A-63]	9330	3200
CC(C)n1ncc2c1C(=O)CC1(CCN(C(=O)c3cc4ccncc4[nH]3)CC1)C2 [Example 2A-64]	229	253
CC(C)n1ncc2c1C(=O)CC1(CCN(C(=O)c3cc(Cl)c4cn[nH]c4c3)CC1)C2 [Example 2A-65]	74.9	51.5
CC(C)n1ncc2c1C(=O)CC1(CCN(C(=O)c3cnc(N4CCOCC4)nc3)CC1)C2 [Example 2A-66]	30000	14000
CC(C)n1ncc2c1C(=O)CC1(CCN(C(=O)c3cc4[nH]ccn4n3)CC1)C2 [Example 2A-67]	799	653
CC(C)n1ncc2c1C(=O)CC1(CCN(C(=O)c3ccc4cn[nH]c4c3)CC1)C2 [Example 2A-68]	68.4	51.2
CC(C)n1ncc2c1C(=O)CC1(CCN(C(=O)c3ccc4ncccc4c3O)CC1)C2 [Example 2A-69]	122	42.9
